ChEMBL document CHEMBL4840352 (J Med Chem, 2021)

Legend:
[1] = test system: MOLM-13; assay: Antiproliferative activity against human MOLM-13 cells incubated for 48 hrs by CCK-8 assay; type: functional, cell-based; details: MOLM-13, 48 h
[2] = test system: MV4-11; assay: Antiproliferative activity against human MV4-11 cells incubated for 48 hrs by CCK-8 assay; type: functional, cell-based; details: MV4-11, 48 h
[3] = test system: Receptor-type tyrosine-protein kinase FLT3 (Homo sapiens), P36888 [UNDEFINED MUTATION]; assay: Induction of FLT3-ITD degradation in human MV4-11 cells after 24 hrs by Western blot analysis; type: cell-based
[4] = test system: Receptor-type tyrosine-protein kinase FLT3 (Homo sapiens), P36888 [UNDEFINED MUTATION]; assay: Induction of FLT3-ITD degradation in human MOLM-13 cells after 24 hrs by Western blot analysis; type: cell-based

Receptor-type tyrosine-protein kinase FLT3 (Homo sapiens), P36888 [UNDEFINED MUTATION], sequence (P36888 whole entry, looked up, change not shown): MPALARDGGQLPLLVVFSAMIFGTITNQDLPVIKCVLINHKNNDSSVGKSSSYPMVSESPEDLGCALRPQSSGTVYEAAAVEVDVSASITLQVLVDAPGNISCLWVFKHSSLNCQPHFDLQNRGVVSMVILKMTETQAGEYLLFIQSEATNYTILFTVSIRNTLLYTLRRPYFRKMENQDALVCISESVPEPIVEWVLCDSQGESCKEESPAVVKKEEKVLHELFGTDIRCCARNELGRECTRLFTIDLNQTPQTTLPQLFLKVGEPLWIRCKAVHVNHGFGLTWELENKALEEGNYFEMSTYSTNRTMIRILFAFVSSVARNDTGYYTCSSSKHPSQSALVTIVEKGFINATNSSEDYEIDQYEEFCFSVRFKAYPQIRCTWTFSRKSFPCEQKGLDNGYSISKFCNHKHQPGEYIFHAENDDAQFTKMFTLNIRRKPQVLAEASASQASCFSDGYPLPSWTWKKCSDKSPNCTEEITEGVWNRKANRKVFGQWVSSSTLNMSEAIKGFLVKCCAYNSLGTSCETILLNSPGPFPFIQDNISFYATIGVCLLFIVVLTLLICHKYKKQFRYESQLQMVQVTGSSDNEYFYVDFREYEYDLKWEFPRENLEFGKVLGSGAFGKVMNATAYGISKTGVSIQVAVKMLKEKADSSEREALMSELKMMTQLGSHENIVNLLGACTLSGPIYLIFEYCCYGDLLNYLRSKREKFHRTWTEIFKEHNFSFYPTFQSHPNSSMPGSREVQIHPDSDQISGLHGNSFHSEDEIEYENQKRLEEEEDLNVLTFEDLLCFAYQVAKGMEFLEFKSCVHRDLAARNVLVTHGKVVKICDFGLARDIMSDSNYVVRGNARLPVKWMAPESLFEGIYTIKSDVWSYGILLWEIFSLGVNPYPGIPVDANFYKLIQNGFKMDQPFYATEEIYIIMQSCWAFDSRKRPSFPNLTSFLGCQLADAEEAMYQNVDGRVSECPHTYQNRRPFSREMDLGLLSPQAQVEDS

## Nc1c(-c2nc3cc(N4CCN(CCCCCC(=O)Nc5cccc6c5C(=O)N(C5CCC(=O)NC5=O)C6=O)CC4)ccc3[nH]2)c(=O)[nH]c2cccc(F)c12 (stereo not drawn)
[1]
  IC50: > 1000 nM
[2]
  IC50: 557 nM

## Nc1c(-c2nc3cc(N4CCN(CCCCCC(=O)Nc5cccc6c5CN(C5CCC(=O)NC5=O)C6=O)CC4)ccc3[nH]2)c(=O)[nH]c2cccc(F)c12 (stereo not drawn)
[1]
  IC50: > 1000 nM
[2]
  IC50: > 1000 nM

## Nc1c(-c2nc3cc(N4CCN(CCC(=O)Nc5cccc6c5C(=O)N(C5CCC(=O)NC5=O)C6=O)CC4)ccc3[nH]2)c(=O)[nH]c2cccc(F)c12 (stereo not drawn)
[1]
  IC50: > 1000 nM
[2]
  IC50: > 1000 nM

## CN1C(=O)CCC(N2C(=O)c3cccc(NCCCCCC(=O)N4CCN(c5ccc6[nH]c(-c7c(N)c8c(F)cccc8[nH]c7=O)nc6c5)CC4)c3C2=O)C1=O (stereo not drawn)
[3]
  Activity: Dose-Dependent Effect
[4]
  Activity: Dose-Dependent Effect
[1]
  IC50: 141 nM
[2]
  IC50: 466 nM

## Nc1c(-c2nc3cc(N4CCN(CCCCC(=O)Nc5cccc6c5C(=O)N(C5CCC(=O)NC5=O)C6=O)CC4)ccc3[nH]2)c(=O)[nH]c2cccc(F)c12 (stereo not drawn)
[1]
  IC50: > 1000 nM
[2]
  IC50: 726 nM

## Nc1c(-c2nc3cc(N4CCN(CCCCC(=O)Nc5cccc6c5CN(C5CCC(=O)NC5=O)C6=O)CC4)ccc3[nH]2)c(=O)[nH]c2cccc(F)c12 (stereo not drawn)
[1]
  IC50: 751 nM
[2]
  IC50: > 1000 nM

## Nc1c(-c2nc3cc(N4CCN(C(=O)CCCCC#Cc5cccc6c5C(=O)N(C5CCC(=O)NC5=O)C6=O)CC4)ccc3[nH]2)c(=O)[nH]c2cccc(F)c12 (stereo not drawn)
[1]
  IC50: 306 nM
[2]
  IC50: 635 nM

## Nc1c(-c2nc3cc(N4CCN(CCCC(=O)Nc5cccc6c5C(=O)N(C5CCC(=O)NC5=O)C6=O)CC4)ccc3[nH]2)c(=O)[nH]c2cccc(F)c12 (stereo not drawn)
[1]
  IC50: 419 nM
[2]
  IC50: 739 nM
